Experimental findings from BindingDB's records for doi:10.1007/s00044-010-9377-3 (n/a, 2011) are described below.

By IC50 is commonly meant the concentration that gives 50% inhibition. A low value points to higher potency.

The test is described as follows: Inhibition of rat intestinal alpha-glucosidase using p-nitrophenyl- alpha-D-glucopyranoside as substrate preincubated for 5 min before addition of substrate measured after 10 min.
Consider `COc1ccc(/N=C/c2cc(Br)ccc2O)cc1`, for which inhibition was half-maximal at 74.1 µM (IC50).
Then `O=[N+]([O-])c1ccc(/N=C/c2ccccc2O)cc1`, with 22.7 µM.
The figure for `O=Cc1cc(Br)ccc1O` [US8614253,3-44] is 8.8 µM.
